Reference: the NIST ThermoML archive (doi:10.1016/j.tca.2009.03.014)
Numbers after ± are expanded uncertainties.

How the values were obtained:
[1] = 101.33 kPa, Liquid; for mass density: Pycnometric method; for speed of sound: Linear variable-path acoustic interferometer
[2] = xn = mol fraction of the nth substance listed; details: 308.15 K, 101 kPa, Liquid; for excess molar volume: Direct dilatometry; for speed of sound: Linear variable-path acoustic interferometer
[3] = excess molar enthalpy (molar enthalpy of mixing); xn = mol fraction of the nth substance listed; details: 308.15 K, 101 kPa, Liquid, Calvet calorimetry

O=C1CCCN1 [2-pyrrolidinone]
[1]
Details	mass density [kg/m3]	speed of sound [m/s]
298.15 K	1107.26 ± 0.29	–
308.15 K	–	1603 ± 2.5

O=C1CCCN1 [2-pyrrolidinone] + CC(C)O
Details	excess molar enthalpy [kcal/mol]	excess molar volume [m3/mol]	speed of sound [m/s]
[2], x1 = 0.0825	–	-9.8e-08 ± 2e-09	–
[2], x1 = 0.0835	–	–	1144.9 ± 2.3
[2], x1 = 0.1311	–	-1.54e-07 ± 3e-09	–
[2], x1 = 0.1329	–	–	1166.9 ± 2.3
[2], x1 = 0.1719	–	-1.97e-07 ± 3e-09	–
[2], x1 = 0.1976	–	–	1196.8 ± 2.3
[2], x1 = 0.2365	–	-2.59e-07 ± 4e-09	–
[2], x1 = 0.2597	–	–	1225.6 ± 2.4
[2], x1 = 0.2949	–	-3.07e-07 ± 4e-09	–
[2], x1 = 0.3244	–	–	1256 ± 2.4
[2], x1 = 0.348	–	-3.36e-07 ± 4e-09	–
[2], x1 = 0.3815	–	–	1283.5 ± 2.4
[2], x1 = 0.4267	–	-3.69e-07 ± 4e-09	–
[2], x1 = 0.4394	–	–	1311.6 ± 2.4
[2], x1 = 0.4756	–	-3.81e-07 ± 5e-09	–
[2], x1 = 0.5031	–	–	1343.3 ± 2.4
[2], x1 = 0.5682	–	–	1376.4 ± 2.4
[2], x1 = 0.5684	–	-3.74e-07 ± 4e-09	–
[2], x1 = 0.6159	–	–	1401.1 ± 2.4
[2], x1 = 0.6315	–	-3.51e-07 ± 4e-09	–
[2], x1 = 0.6879	–	–	1439.2 ± 2.4
[2], x1 = 0.6921	–	-3.17e-07 ± 4e-09	–
[2], x1 = 0.7193	–	-2.98e-07 ± 4e-09	–
[2], x1 = 0.765	–	–	1479.9 ± 2.5
[2], x1 = 0.8048	–	-2.29e-07 ± 3e-09	–
[2], x1 = 0.8223	–	–	1511.6 ± 2.5
[2], x1 = 0.8941	–	-1.33e-07 ± 3e-09	–
[2], x1 = 0.9042	–	–	1553.8 ± 2.5
[3], x1 = 0.0841	0.11 ± 0.00239	–	–
[3], x1 = 0.1776	0.187 ± 0.00406	–	–
[3], x1 = 0.2315	0.21 ± 0.00454	–	–
[3], x1 = 0.334	0.226 ± 0.00478	–	–
[3], x1 = 0.3758	0.227 ± 0.00478	–	–
[3], x1 = 0.4453	0.218 ± 0.00478	–	–
[3], x1 = 0.501	0.206 ± 0.0043	–	–
[3], x1 = 0.6009	0.175 ± 0.00382	–	–
[3], x1 = 0.6811	0.144 ± 0.00311	–	–
[3], x1 = 0.7151	0.129 ± 0.00287	–	–
[3], x1 = 0.7626	0.111 ± 0.00239	–	–
[3], x1 = 0.8338	0.0822 ± 0.00182	–	–
[3], x1 = 0.8794	0.0634 ± 0.00141	–	–
[3], x1 = 0.9223	0.0429 ± 0.00098	–	–

O=C1CCCN1 [2-pyrrolidinone] + CCCCO
Details	excess molar enthalpy [kcal/mol]	excess molar volume [m3/mol]	speed of sound [m/s]
[2], x1 = 0.0632	–	–	1237.1 ± 2.4
[2], x1 = 0.0883	–	-6.5e-08 ± 2e-09	–
[2], x1 = 0.1021	–	-7.6e-08 ± 2e-09	–
[2], x1 = 0.1176	–	–	1245.9 ± 2.4
[2], x1 = 0.186	–	–	1262.9 ± 2.4
[2], x1 = 0.2306	–	–	1276.6 ± 2.4
[2], x1 = 0.2423	–	-1.47e-07 ± 3e-09	–
[2], x1 = 0.3298	–	-1.72e-07 ± 3e-09	–
[2], x1 = 0.3394	–	–	1315.9 ± 2.4
[2], x1 = 0.3954	–	–	1338.2 ± 2.4
[2], x1 = 0.4003	–	-1.87e-07 ± 3e-09	–
[2], x1 = 0.4442	–	–	1359 ± 2.4
[2], x1 = 0.4536	–	-1.9e-07 ± 3e-09	–
[2], x1 = 0.4825	–	–	1374.9 ± 2.4
[2], x1 = 0.497	–	-1.92e-07 ± 3e-09	–
[2], x1 = 0.5269	–	-1.88e-07 ± 3e-09	–
[2], x1 = 0.5453	–	–	1402 ± 2.4
[2], x1 = 0.5702	–	–	1412.4 ± 2.4
[2], x1 = 0.5855	–	-1.83e-07 ± 3e-09	–
[2], x1 = 0.6229	–	-1.76e-07 ± 3e-09	–
[2], x1 = 0.6427	–	–	1441.1 ± 2.4
[2], x1 = 0.7154	–	-1.53e-07 ± 3e-09	–
[2], x1 = 0.7367	–	–	1478 ± 2.5
[2], x1 = 0.7617	–	-1.36e-07 ± 3e-09	–
[2], x1 = 0.8275	–	–	1512.6 ± 2.5
[2], x1 = 0.8382	–	-1.02e-07 ± 2e-09	–
[2], x1 = 0.8826	–	-7.7e-08 ± 2e-09	–
[2], x1 = 0.9152	–	–	1551 ± 2.5
[3], x1 = 0.0824	0.0833 ± 0.00184	–	–
[3], x1 = 0.1933	0.155 ± 0.00335	–	–
[3], x1 = 0.2472	0.174 ± 0.00382	–	–
[3], x1 = 0.3241	0.193 ± 0.00406	–	–
[3], x1 = 0.3748	0.195 ± 0.0043	–	–
[3], x1 = 0.4183	0.195 ± 0.0043	–	–
[3], x1 = 0.4734	0.191 ± 0.00406	–	–
[3], x1 = 0.5451	0.178 ± 0.00382	–	–
[3], x1 = 0.5725	0.17 ± 0.00359	–	–
[3], x1 = 0.6427	0.151 ± 0.00335	–	–
[3], x1 = 0.7058	0.127 ± 0.00263	–	–
[3], x1 = 0.7499	0.112 ± 0.00239	–	–
[3], x1 = 0.8571	0.0658 ± 0.00146	–	–
[3], x1 = 0.9247	0.0365 ± 0.000837	–	–

O=C1CCCN1 [2-pyrrolidinone] + CCCO
Details	excess molar enthalpy [kcal/mol]	excess molar volume [m3/mol]	speed of sound [m/s]
[2], x1 = 0.0349	–	-2.3e-08 ± 2e-09	–
[2], x1 = 0.0973	–	-6.7e-08 ± 2e-09	–
[2], x1 = 0.0982	–	–	1219.3 ± 2.4
[2], x1 = 0.1436	–	-1e-07 ± 2e-09	–
[2], x1 = 0.158	–	–	1240.8 ± 2.4
[2], x1 = 0.1968	–	–	1255 ± 2.4
[2], x1 = 0.2052	–	-1.38e-07 ± 3e-09	–
[2], x1 = 0.2654	–	-1.75e-07 ± 3e-09	–
[2], x1 = 0.2958	–	–	1294.4 ± 2.4
[2], x1 = 0.3299	–	-2.08e-07 ± 3e-09	–
[2], x1 = 0.3309	–	–	1308.9 ± 2.4
[2], x1 = 0.3881	–	-2.27e-07 ± 3e-09	–
[2], x1 = 0.3952	–	–	1336.5 ± 2.4
[2], x1 = 0.4485	–	–	1359.7 ± 2.4
[2], x1 = 0.4495	–	-2.44e-07 ± 3e-09	–
[2], x1 = 0.4949	–	–	1380.7 ± 2.4
[2], x1 = 0.521	–	–	1391.8 ± 2.4
[2], x1 = 0.5246	–	-2.48e-07 ± 3e-09	–
[2], x1 = 0.5749	–	-2.46e-07 ± 3e-09	–
[2], x1 = 0.5951	–	–	1425.6 ± 2.4
[2], x1 = 0.6516	–	-2.27e-07 ± 3e-09	–
[2], x1 = 0.6957	–	–	1470.7 ± 2.5
[2], x1 = 0.7314	–	–	1485.7 ± 2.5
[2], x1 = 0.7453	–	-1.85e-07 ± 3e-09	–
[2], x1 = 0.7968	–	–	1515.4 ± 2.5
[2], x1 = 0.8357	–	-1.29e-07 ± 3e-09	–
[2], x1 = 0.8982	–	–	1558.4 ± 2.5
[2], x1 = 0.9206	–	-6.5e-08 ± 2e-09	–
[3], x1 = 0.0592	0.0594 ± 0.00131	–	–
[3], x1 = 0.1085	0.0933 ± 0.00203	–	–
[3], x1 = 0.1966	0.135 ± 0.00287	–	–
[3], x1 = 0.2273	0.145 ± 0.00311	–	–
[3], x1 = 0.3287	0.161 ± 0.00359	–	–
[3], x1 = 0.3782	0.159 ± 0.00335	–	–
[3], x1 = 0.4394	0.155 ± 0.00335	–	–
[3], x1 = 0.495	0.146 ± 0.00311	–	–
[3], x1 = 0.5219	0.139 ± 0.00311	–	–
[3], x1 = 0.5951	0.125 ± 0.00263	–	–
[3], x1 = 0.6622	0.108 ± 0.00234	–	–
[3], x1 = 0.7539	0.0808 ± 0.00177	–	–
[3], x1 = 0.8065	0.068 ± 0.00151	–	–
[3], x1 = 0.8946	0.0396 ± 0.000908	–	–

O=C1CCCN1 [2-pyrrolidinone] + CCO
Details	excess molar enthalpy [kcal/mol]	excess molar volume [m3/mol]	speed of sound [m/s]
[2], x1 = 0.0767	–	-9.2e-08 ± 2e-09	–
[2], x1 = 0.0784	–	–	1172.9 ± 2.3
[2], x1 = 0.1393	–	-1.72e-07 ± 3e-09	–
[2], x1 = 0.1607	–	–	1230.8 ± 2.4
[2], x1 = 0.1763	–	-2.15e-07 ± 3e-09	–
[2], x1 = 0.1963	–	–	1252.8 ± 2.4
[2], x1 = 0.2471	–	–	1282.9 ± 2.4
[2], x1 = 0.2676	–	-3.07e-07 ± 4e-09	–
[2], x1 = 0.338	–	–	1327.2 ± 2.4
[2], x1 = 0.3493	–	-3.68e-07 ± 4e-09	–
[2], x1 = 0.3876	–	–	1349.4 ± 2.4
[2], x1 = 0.4016	–	-3.94e-07 ± 5e-09	–
[2], x1 = 0.4337	–	–	1366.5 ± 2.4
[2], x1 = 0.4713	–	–	1381 ± 2.4
[2], x1 = 0.4865	–	-4.16e-07 ± 5e-09	–
[2], x1 = 0.5347	–	–	1404.3 ± 2.4
[2], x1 = 0.5479	–	-4.13e-07 ± 5e-09	–
[2], x1 = 0.5985	–	–	1427.8 ± 2.4
[2], x1 = 0.6015	–	-3.94e-07 ± 5e-09	–
[2], x1 = 0.6412	–	–	1444.8 ± 2.4
[2], x1 = 0.6573	–	-3.66e-07 ± 4e-09	–
[2], x1 = 0.7145	–	-3.21e-07 ± 4e-09	–
[2], x1 = 0.7539	–	–	1492.3 ± 2.5
[2], x1 = 0.7982	–	-2.4e-07 ± 3e-09	–
[2], x1 = 0.8064	–	–	1518.1 ± 2.5
[2], x1 = 0.856	–	-1.75e-07 ± 3e-09	–
[2], x1 = 0.8887	–	–	1559.4 ± 2.5
[2], x1 = 0.92	–	-9.7e-08 ± 2e-09	–
[3], x1 = 0.0647	0.0643 ± 0.00143	–	–
[3], x1 = 0.1158	0.102 ± 0.00222	–	–
[3], x1 = 0.2075	0.14 ± 0.00311	–	–
[3], x1 = 0.2768	0.149 ± 0.00311	–	–
[3], x1 = 0.338	0.152 ± 0.00335	–	–
[3], x1 = 0.38	0.148 ± 0.00311	–	–
[3], x1 = 0.4337	0.14 ± 0.00311	–	–
[3], x1 = 0.5337	0.118 ± 0.00263	–	–
[3], x1 = 0.605	0.104 ± 0.00227	–	–
[3], x1 = 0.6856	0.0834 ± 0.00184	–	–
[3], x1 = 0.7539	0.0649 ± 0.00143	–	–
[3], x1 = 0.7929	0.0552 ± 0.00124	–	–
[3], x1 = 0.8436	0.0455 ± 0.00103	–	–
[3], x1 = 0.8904	0.0312 ± 0.000741	–	–

CCCCO [butan-1-ol]
[1]
Details	mass density [kg/m3]	speed of sound [m/s]
298.15 K	809.5 ± 0.19	–
308.15 K	–	1232.2 ± 2.4

CCO [ethanol]
[1]
Details	mass density [kg/m3]	speed of sound [m/s]
298.15 K	785.08 ± 0.18	–
308.15 K	–	1112 ± 2.3

CCCO [propan-1-ol]
[1]
Details	mass density [kg/m3]	speed of sound [m/s]
298.15 K	799.28 ± 0.19	–
308.15 K	–	1188.2 ± 2.3

CC(C)O [propan-2-ol]
[1], 298.15 K
Details	mass density [kg/m3]	speed of sound [m/s]
–	780.98 ± 0.18	1135.9 ± 2.3
